Columns and labels:
[1] = biological target: histone deacetylase activity (HeLa nuclear extract); test: HDAC fluorescent activity assay (Biomol, Fluor de Lys substrate); assay type: biochemical; details: IC50 range
Method: The ability of compounds to inhibit histone deacetylase activities was measured using the commercially available HDAC fluorescent activity assay from Biomol. In brief, the Fluor de Lys™ substrate, a lysine with an epsilon-amino acetylation, is incubated with the source of histone deacetylase activity (HeLa nuclear extract) in the presence or absence of inhibitor. Deacetylation of the substrate sensitises the substrate to Fluor de Lys™ developer, which generates a fluorophore.
Data are expressed as a percentage of the control, measured in the absence of inhibitor, with background signal being subtracted from all samples, as follows:— % activity=[(S^i−B)/(S^o−B)]×100 where S^i is the signal in the presence of substrate, enzyme and inhibitor, S^o is the signal in the presence of substrate, enzyme and the vehicle in which the inhibitor is dissolved, and B is the background signal measured in the absence of enzyme.
Histone deacetylase activity from crude nuclear extract derived from HeLa cells was used for screening. The preparation, purchased from 4C (Seneffe, Belgium), was prepared from HeLa cells harvested whilst in exponential growth phase. The nuclear extract is prepared according to Dignam JD1983 Nucl. Acid. […] The final buffer composition was 20 mM Hepes, 100 mM KCl, 0.2 mM EDTA, 0.5 mM DTT, 0.2 mM PMSF and 20% (v/v) glycerol.

[2] = system: HeLa cells; test: HeLa cell inhibition assay (SRB cell viability); assay type: cell-based; details: Homo sapiens, HeLa, 72 h, IC50 range
Method: HeLa cells growing in log phase were harvested and seeded at 1000 cells/well (200 μl final volume) into 96-well tissue culture plates. Following 24 h of cell growth cells were treated with compounds (final concentration of 20 μM). Plates were then re-incubated for a further 72 h before a sulphorhodamine B (SRB) cell viability assay was conducted according to Skehan 1990 J Natl Canc Inst 82, 1107-1112.
(§1) Data were expressed as a percentage inhibition of the control, measured in the absence of inhibitor, as follows:— % inhibition=100−[(S^i/S^o)×100] where S^i is the signal in the presence of inhibitor and S^o is the signal in the presence of DMSO.
IC50 values were determined by non-linear regression analysis, after fitting the results of eight data points to the equation for sigmoidal dose response with variable slope (% activity against log concentration of compound), using Graphpad Prism software.
(§2) IC50 results were allocated to one of 3 ranges as follows: […]

[3] = system: U937; test: U937 cell inhibition assay (WST-1 cell viability); assay type: cell-based; details: Homo sapiens, U-937; U937 cells, 72-96 h, WST-1 assay, IC50 range
Method: (§3) Cancer cell lines (U937 and HUT) growing in log phase were harvested and seeded at 1000-2000 cells/well (100 μl final volume) into 96-well tissue culture plates. Following 24 h of growth cells were treated with compound. Plates were then re-incubated for a further 72-96 h before a WST-1 cell viability assay was conducted according to the suppliers (Roche Applied Science) instructions.
as §1
(§4) Dose response curves were generated from 8 concentrations (top final concentration 10 μM, with 3-fold dilutions), using 6 replicates.
(§5) IC50 values were determined by non-linear regression analysis, after fitting the results to the equation for sigmoidal dose response with variable slope (% activity against log concentration of compound), using Graphpad Prism software.
as §2

[4] = system: HUT; test: HUT cell inhibition assay (WST-1 cell viability); assay type: cell-based; details: HUT cells, 72-96 h, WST-1 assay, IC50 range
Method: as §3, §1, §4, §5, §2

SMILES | IC50 [1] | IC50 [2] | IC50 [3] | IC50 [4]
O=C(NO)c1cnc(N2CC3C(C2)C3NC(=O)c2cccs2)nc1 (stereo not drawn) [Example 18, N-Hydroxy 2-{6-[(thien-2-ylcarbonyl)amino]-3-azabicyclo[3.1.0]hex-3-yl}pyrimidine-5-carboxamide] | < 100 nM | > 3300 nM | > 3300 nM | 331 to 3300 nM
O=C(NO)c1cnc(N2CC3C(C2)C3NCc2ccc(Oc3ccccc3)cc2)nc1 (stereo not drawn) [Example 22, N-Hydroxy 2-[6-(4-phenoxybenzylamino)-3-azabicyclo[3.1.0]hex-3-yl]pyrimidine-5-carboxamide] | < 100 nM | < 330 nM | < 330 nM | < 330 nM
O=C(NO)c1cnc(N2CC3C(C2)C3NC(=O)C2CCCCC2)nc1 (stereo not drawn) [Example 12, N-Hydroxy 2-{6-[(cyclohexylcarbonyl)amino]-3-azabicyclo[3.1.0]hex-3-yl}pyrimidine-5-carboxamide] | < 100 nM | 331 to 3300 nM | 331 to 3300 nM | 331 to 3300 nM
O=C(Cc1ccc(-c2ccccc2)cc1)NC1C2CN(c3ncc(C(=O)NO)cn3)CC21 (stereo not drawn) [Example 19, N-Hydroxy 2-[6-(2-biphenyl-4-yl-acetylamino)-3-azabicyclo[3.1.0]hex-3-yl]pyrimidine-5-carboxamide] | < 100 nM | < 330 nM | < 330 nM | < 330 nM
CC(=O)N(Cc1ccc2ccccc2c1)C1C2CN(c3ncc(C(=O)NO)cn3)CC21 (stereo not drawn) [Example 60, N-Hydroxy 2-[6-(acetylnaphthalen-2-ylmethylamino)-3-azabicyclo[3.1.0]hex-3-yl]pyrimidine-5-carboxamide] | < 100 nM | < 330 nM | < 330 nM | < 330 nM
O=C(NO)c1cnc(N2CC3CN(C(=O)c4ccc5ccccc5c4)CC3C2)nc1 (stereo not drawn) [Example 77, N-Hydroxy 2-[5-(naphthalene-2-carbonyl)hexahydropyrrolo[3,4-c]pyrrol-2(1H)-yl]pyrimidine-5-carboxamide] | < 100 nM | < 330 nM | 331 to 3300 nM | < 330 nM
O=C(NO)c1cnc(N2CC3C(C2)C3NCc2cc(F)cc(F)c2)nc1 (stereo not drawn) [Example 28, N-Hydroxy 2-{6-[(3,5-difluorobenzyl)amino]-3-azabicyclo[3.1.0]hex-3-yl}pyrimidine-5-carboxamide] | < 100 nM | < 330 nM | < 330 nM | < 330 nM
O=C(NO)c1cnc(N2CC3C(CNCc4ccc(Cl)cc4)C3C2)nc1 (stereo not drawn) [Example 73, N-Hydroxy 2-(6-{[(4-chlorobenzyl)amino]methyl}-3-azabicyclo[3.1.0]hex-3-yl)pyrimidine-5-carboxamide] | < 100 nM | 331 to 3300 nM | 331 to 3300 nM | < 330 nM
O=C(NO)c1cnc(N2CC3C(C2)C3N(Cc2ccc3ccccc3c2)Cc2ccc3ccccc3c2)nc1 (stereo not drawn) [Example 57, N-Hydroxy 2-[6-(bisnaphthalen-2-ylmethylamino)-3-azabicyclo[3.1.0]hex-3-yl]pyrimidine-5-carboxamide] | > 1000 nM | > 3300 nM | > 3300 nM | > 3300 nM

Continued, in another order:

IC50 [1] | IC50 [2] | IC50 [3] | SMILES | IC50 [4]
< 100 nM | 331 to 3300 nM | < 330 nM | N#Cc1ccc(CNC2C3CN(c4ncc(C(=O)NO)cn4)CC32)cc1 (stereo not drawn) [Example 31, N-Hydroxy 2-{6-[(4-cyanobenzyl)amino]-3-azabicyclo[3.1.0]hex-3-yl}pyrimidine-5-carboxamide] | < 330 nM
< 100 nM | 331 to 3300 nM | 331 to 3300 nM | O=C(NO)c1cnc(N2CC3C(C2)C3N(CCc2ccccn2)S(=O)(=O)c2ccc3ccccc3c2)nc1 (stereo not drawn) [Example 54, N-Hydroxy 2-{6-[(naphthalene-2-sulfonyl)-(2-pyridin-2-ylethyl)-amino]-3-azabicyclo[3.1.0]hex-3-yl}pyrimidine-5-carboxamide] | 331 to 3300 nM
< 100 nM | < 330 nM | < 330 nM | O=C(NO)c1cnc(N2CC3C(C2)C3NCc2csc3ccccc23)nc1 (stereo not drawn) [Example 32, N-Hydroxy 2-{6-[(1-benzothien-3-ylmethyl)amino]-3-azabicyclo[3.1.0]hex-3-yl}pyrimidine-5-carboxamide] | < 330 nM
< 100 nM | 331 to 3300 nM | 331 to 3300 nM | Cn1cc(CC(=O)NC2C3CN(c4ncc(C(=O)NO)cn4)CC32)c2ccccc21 (stereo not drawn) [Example 14, N-Hydroxy 2-{6-[2-(1-methyl-1H-indol-3-yl)acetylamino]-3-aza-bicyclo[3.1.0]hex-3-yl}pyrimidine-5-carboxamide] | 331 to 3300 nM
< 100 nM | 331 to 3300 nM | 331 to 3300 nM | Cc1nccn1CCN(C1C2CN(c3ncc(C(=O)NO)cn3)CC21)S(=O)(=O)c1ccc2ccccc2c1 (stereo not drawn) [Example 47, N-Hydroxy 2-{6-[[2-(2-methylimidazol-1-yl)ethyl](naphthalene-2-sulfonyl)amino]-3-azabicyclo[3.1.0]hex-3-yl}pyrimidine-5-carboxamide] | 331 to 3300 nM
< 100 nM | 331 to 3300 nM | < 330 nM | O=C(NO)c1cnc(N2CC3CN(Cc4cc(F)cc(F)c4)CC3C2)nc1 (stereo not drawn) [Example 83, N-Hydroxy 2-[5-(3,5-difluorobenzyl)hexahydropyrrolo[3,4-c]pyrrol-2(1H)-yl]pyrimidine-5-carboxamide] | < 330 nM
< 100 nM | 331 to 3300 nM | 331 to 3300 nM | O=C(NO)c1cnc(N2CC3C(CNCc4ccc5ccccc5n4)C3C2)nc1 (stereo not drawn) [Example 74, N-Hydroxy 2-(6-{[(quinolin-2-ylmethyl)amino]methyl}-3-azabicyclo[3.1.0]hex-3-yl)pyrimidine-5-carboxamide] | < 330 nM
< 100 nM | 331 to 3300 nM | 331 to 3300 nM | CN(C1C2CN(c3ncc(C(=O)NO)cn3)CC21)S(=O)(=O)c1ccc2ccccc2c1 (stereo not drawn) [Example 45, N-Hydroxy 2-{6-[methyl(naphthalene-2-sulfonyl)-amino]-3-aza-bicyclo[3.1.0]hex-3-yl}pyrimidine-5-carboxamide] | < 330 nM
< 100 nM | > 3300 nM | 331 to 3300 nM | O=C(NO)c1cnc(N2CC3CN(S(=O)(=O)c4cc(C(F)(F)F)cc(C(F)(F)F)c4)CC3C2)nc1 (stereo not drawn) [Example 81, N-hydroxy 2-[5-(3,5-bistrifluoromethylbenzenesulfonyl)hexahydropyrrolo[3,4-c]pyrrol-2(1H)-yl]-pyrimidine-5-carboxamide] | 331 to 3300 nM
< 100 nM | < 330 nM | < 330 nM | O=C(NO)c1cnc(N2CC3C(C2)C3N(CCN2CCCC2)S(=O)(=O)c2ccc3ccccc3c2)nc1 (stereo not drawn) [Example 46, N-Hydroxy 2-{6-[(naphthalene-2-sulfonyl)-(2-pyrrolidin-1-yl-ethyl)amino]-3-azabicyclo[3.1.0]hex-3-yl}pyrimidine-5-carboxamide] | < 330 nM
< 100 nM | < 330 nM | < 330 nM | O=C(NO)c1cnc(N2CC3C(C2)C3Nc2nccc3ccccc23)nc1 (stereo not drawn) [Example 68, N-Hydroxy 2-[6-(isoquinolin-1-ylamino)-3-azabicyclo[3.1.0]hex-3-yl]pyrimidine-5-carboxamide] | < 330 nM
< 100 nM | < 330 nM | < 330 nM | CC(CCNC1C2CN(c3ncc(C(=O)NO)cn3)CC21)c1ccccc1 (stereo not drawn) [Example 29, N-Hydroxy 2-[6-(3-phenylbutylamino)-3-aza-bicyclo[3.1.0]hex-3-yl]pyrimidine-5-carboxamide] | < 330 nM
